Data set [1] concerns the target T1, 5-hydroxytryptamine receptor 3A (Rattus norvegicus, UniProt P35563).
T1 sequence (P35563 whole entry): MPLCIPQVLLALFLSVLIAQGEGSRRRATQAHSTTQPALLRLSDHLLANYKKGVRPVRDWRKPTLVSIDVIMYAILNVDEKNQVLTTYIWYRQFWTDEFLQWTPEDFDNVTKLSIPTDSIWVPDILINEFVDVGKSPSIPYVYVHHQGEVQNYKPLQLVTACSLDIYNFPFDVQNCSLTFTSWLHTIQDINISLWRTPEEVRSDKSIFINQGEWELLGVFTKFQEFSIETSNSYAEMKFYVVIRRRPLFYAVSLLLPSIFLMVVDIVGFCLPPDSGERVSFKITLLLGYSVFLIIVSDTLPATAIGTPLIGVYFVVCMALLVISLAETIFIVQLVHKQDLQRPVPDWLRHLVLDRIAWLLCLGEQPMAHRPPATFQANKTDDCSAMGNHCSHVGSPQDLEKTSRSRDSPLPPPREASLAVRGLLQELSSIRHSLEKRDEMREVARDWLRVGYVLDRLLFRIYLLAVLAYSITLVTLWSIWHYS
As to the kind of experiment: Compound was tested for its binding affinity towards 5-hydroxytryptamine 3 receptor in whole rat brain using [125I]DAIZAC as the radioligand.

For data set [2], the target named is T1, 5-hydroxytryptamine receptor 3A. As to the kind of experiment: Compound was tested for its binding affinity towards 5-hydroxytryptamine 3 receptor in whole rat brain using (S)-[125I]-zacopride as the radioligand.
Data set [3] shares this target. As to the kind of experiment: Compound was tested in vitro for its antagonistic activity against 5-hydroxytryptamine 3 receptor in rat CNS. The format is functional.
The target is the same in data set [4]. The data set is described as follows: Compound was tested in vitro for its antagonistic activity against 5-hydroxytryptamine 3 receptor. The format is functional.
The target is the same in data set [5]. The data set is described as follows: Compound was tested for its antagonistic activity against 5-hydroxytryptamine 3 receptor in rat brain using [3H]zacopride as the radioligand. The class given is functional, tissue-based.
The target is the same in data set [6]. As to the kind of experiment: Compound was tested for its binding affinity towards 5-hydroxytryptamine 3 receptor.
For data set [7] the target is unchanged. As to the kind of experiment: Compound was tested for its binding affinity towards 5-HT-3 receptor in whole rat brain using (S)-[125I]-zacopride as the radioligand.
The nature of data set [8]: Apparent lipophilicity value of the compound. The class given is physicochemical. The settings on record: octanol/water.

pKd, pKi: −log10 of the molar value.

`COc1cc(N)c(I)cc1C(=O)NC1CN2CCC1CC2` (centres undefined): the pKi in data set [1] was 8.86; in data set [2], 8.97. In data set [3], this molecule showed a pKd of 8.59.
Consider `COc1c(I)cc(Cl)cc1C(=O)N[C@@H]1CN2CCC1CC2`, for which, in data set [4], the negative-log Kd (pKd) was 9.82.
In turn, `COc1cc(N)c(Cl)cc1C(=O)NC1CN2CCC1CC2` (centres undefined) [ZACOPRIDE] showed a negative logarithm of the Kd (pKd) in data set [5] of 9.22.
Turning to `COc1c(C(=O)N[C@@H]2CN3CCC2CC3)cc(Cl)c(N)c1I`, the negative-log Ki (pKi) in data set [6] was 10.30; in data set [1], 10.12; in data set [7], 10.28. Moreover, the logD in data set [8] amounted to 2.12.

The record behind these values is ChEMBL document CHEMBL1129720, “(S)-4-amino-5-chloro-3-iodo-2-methoxy-N-(1-azabicyclo[2.2.2]oct-3-yl)benzamide (TRIZAC), a high-affinity ligand for the 5-HT-3 receptor” (Bioorg Med Chem Lett, 1996).
